Laboratory results published in US20010011128A1, “Hex II tumor-specific promoter and uses thereof” (priority 1996, published 2001).

Assays:
[1] = system: HK II promoter in NCI-H661 cells; experiment: Regulation of HK II promoter (pHexII4557 CAT) by glucose, insulin, glucagon; assay type: cell-based, human; conditions: NCI-H661 transfected with pHexII4557 CAT; 25 mM glucose, 100 nM insulin, 10 μM glucagon
Experimental: Transient transfections were performed using Lipofect AMINE (Canadian Life Technologies. Burlington, ON, Canada). Seventy to 80% confluent cells were transfected with 1 μg of the reporter plasmid pCAT, pMUCI-1583 CAT, pHexII4557 CAT, or pRSV CAT (Rous sarcoma virus long terminal repeat promoter) (ATCC). One microgram of pSV2-Pgalactosidase (Promega) was cotransfected as an internal control for variations in transfection efficiency in serum-free Dulbecco's modified Eagle's medium (DMEM). The medium was replaced with fresh growth medium after 6 hr. In promoter regulation experiments, the cells were transfected in RPMI 1640 glucose-deficient medium. Six hours after transfection, the medium was replaced with RPMI 1640 glucose-deficient medium supplemented with 100 nM bovine insulin. 25 mM glucose, or 10 μM glucagon (Sigma Aldrich Canada. Oakville. ON, Canada) or a combination of insulin and glucose, supplemented with 1 mM sodium pyruvate and 100 μM glucose. […] The protein concentration of the extracts was measured using the Bradford protein assay from Bio-Rad (Mississauga, ON. Canada) and equal amounts were assayed in the chloramphenicol acetyltransferase (CAT) and β-galactosidase assays, which were carried out as described by the manufacturer (Promega). Percent acetylation was measured using the Bio-Rad Gelscan Phos-phoimager and the Molecular Analyst software program. […]

[2] = system: H661 non-small cell lung carcinoma cells; experiment: CAT reporter gene assay, Hex II promoter activation (first series); assay type: cell-based, human; conditions: treatment of the transfectants
Experimental: Transient transfections were performed using lipofectamine according to the manufacturer's recommendations (GIBCO-BRL). Cells were plated the day before transfection to give 60% confluency in 6-well plates. The p1583/+33MUC1.CAT or pHex4557.CAT vectors were transfected along with pSV2lacZ to determine promoter activity. 1 ug of each plasmid were used for each well. All conditions assayed were done in duplicate. The plasmids pRSV.CAT and promoterless pCAT were used as positive and negative controls, respectively. Cells extracts were prepared 48 hours after transfection and β-galactosidase activity was assayed to compensate for variations in transfection efficiency. CAT activity was determined from 75-100 ug of proteins. The reaction was carried out with 0.1 uCi of ^14C-labeled chloramphenicol in a 100 ul reaction at 37° C. for 4 hrs.

HK II mRNA in NHBECs = experiment: Ribonuclease protection assay of HK II mRNA; assay type: cell-based, human; conditions: 25 mM glucose, 100 nM insulin, 10 μM glucagon, 12 hr
Experimental: For regulation studies, cells were grown to subconfluence in 75-cm^2 flasks, starved in serum-free, glucose-deficient RPMI 1640 medium (Canadian Life Technologies) for 18 hr, and induced in 25 mM glucose, 100 nM insulin, and 10 μM glucagon (Sigma Aldrich Canada) for 12 hr. RNA was extracted from cells using RNAzol (Tel-Test, Friendswood, Tex.) as described by the manufacturer. Contaminating DNA was digested with 5-10 units of DNase I (Pharmacia Biotech) in 10 mM MgCl2, 1 mM dithiothreitol (DTT), […] of RNA Guard (Pharmacia Biotech), 50-80 μl of total RNA at 1 μg/μl for 30 min at 37° C., followed by precipitation of total RNA.
The HK II probe (0.1 fmol) and the human β-actin probe (2 fmol) were simultaneously hybridized to 30 μg of total RNA using the RPA II kit (Ambion, Austin, Tex.) according to the manufacturer recommendations. Probes were prepared by in vitro transcription using the MAXIscript kit (Ambion) and [α-^32P]UTP (6000 Ci/mmol, 40 mCi/ml). HK II (nucleotides 1500 to 1803 of HK II cDNA; GenBank Z-16376) was inserted in the pDP18-T7/T3 vector (Ambion). The template was cut with KpnI at the 5′ end of the insert and transcribed toward that site from the T7 promoter to produce a 430-bp transcript. The HK II-protected fragment is 303 bp. […] Quantitation was performed using the NIH Image 1.67b densitometry software.

[3] = MTT cell viability assay, pΔE1sp1B Hex TK transfectants treated with gancyclovir; assay type: cell-based; conditions: GCV 10 or 25 ug/ml, controls GCV alone or plasmid only
Experimental: Cells in the logarithmic phase of growth were resuspended at a concentration of 2×10^5 cells/ml. 2 ml/well were plated in 6-well plates. Plates were incubated for 24 h at 37° C. in 5% CO2. Subsequently, cells were transfected with the pΔE1sp1B Hex TK plasmid as described above. […] Each condition was done in triplicate. Cells survival was calculated in the treated population as a percentage of controls. Controls are cells transfected with the plasmid alone or treated with the drug alone. MTT assays was performed two days following treatment. The formazan crystals were dissolved in […] (Fisher) and glycine buffer (0.1 M glycine-0.1 M NaCl, pH 10.5). The formazan product formed by viable cells was quantitated by measuring the absorbance at a wavelength of 570 nm.

Molecule	HK II promoter activation, increase over basal [1]	effect on Hex II promoter activation [2]	HK II mRNA level relative to basal (HK II mRNA in NHBECs)	cell survival less than control cells [3]
insulin: bovine insulin, regulator of glucose metabolism	did not lead to significant differences	–	–	–
glucagon: regulator of glucose metabolism, physiological inhibitor of Hex II	did not lead to significant differences	did not inhibit promoter activation	repressed HK II expression	–
Nc1nc(O)c2ncn(COC(CO)CO)c2n1 [GCV, gancyclovir]	–	–	–	50%
